Literature values as cited in paper PMC8463262 (Acta Pharmaceutica Sinica. B, 2020).

Tested on: PRMT5
Conditions: read-out: IC50 PRMT5

**Q.** With `CCNC(=O)NCCSC[C@H]1O[C@@H](n2cnc3c(N)ncnc32)[C@H](O)[C@@H]1O` [DS437] as the compound, how does the IC50 read?
**A.** 6 µM
